Test results reported in patent publication US12172965B2, “Drug conjugate comprising quinoline derivatives” (UNIVERSITE PARIS-SACLAY, priority 2018, dated 2024).
Like-named read-outs stand apart in the source and are kept apart here.

Experiments:
HCT116 cell line = settings: comparison of molecules Ia and Ib; cited from earlier work
[1] = test system: MDA-MB231 (breast tumour); assay: Antiproliferative activity (IC50), CellTiter Glo, MDA-MB231; type: cell-based; settings: unconjugated
Description: (§1) The IC50 (as per accepted terminology) activities of the compounds according to the invention 4-((3-amino-4-methoxyphenyl)(methyl)amino) quinoline-2-carbonitrile (ICQN-1); 5-(5-((2-cyanoquinolin-4-yl)(methyl)amino)-2-methoxyphenyl)-N-hydroxypent-4-ynamide (ICQN-2); and (E)-3-(5-((2-cyanoquinolin-4-yl)(methyl)amino)-2-methoxyphenyl)-N-hydroxyacrylamide (ICQN-3) were compared with compounds of the prior art and with a commercial and clinical reference compound, in particular MMAE (monomethylauristatin E). The IC50 activities were measured on various different cancer cell lines HCT116 (colorectal tumour), A549 (non-small cell lung cancer), NCI-N87 (gastric tumour), Mia-Paca-2 (pancreatic tumour), K562R (chronic myeloid leukemia), SKOV3 (ovarian tumour), SKBr3 (breast tumour, Her2 overexpression), MCF7 (breast tumour) and MDA-MB231 (breast tumour).
(§2) The cancer cell lines were obtained from the American Culture Collection (ATCC, Rockville, MD) or from the German collection of microorganisms and cell cultures of the Leibniz Institute (DSMZ, Braunschweig-Germany) or from the European collection of cell cultures (ECACC, England). The cancer cell lines were cultured according to the supplier's instructions.
(§3) The breast adenocarcinoma cells MDA-MB231 and MCF7 were cultured in Gibco RPMI 1640 culture medium supplemented with 10% foetal calf serum (FCS) and 1% glutamine.
(§4) The cells were counted using a Vi-cell XR (Beckman Coulter) and the cell viability was assessed by using 0.25% trypan blue dye exclusion assay. The cells were tested for the presence of mycoplasmas prior to the experiments with the Mycoplasma PCR detection kit (Applied Biological Materials Inc., Canada) according to the manufacturer's instructions, and only mycoplasma-free cells were used for the study. The cell lines were maintained at 37° C. in a humidified atmosphere containing 5% CO2.
(§5) After 24 hours of culturing, the cells were treated with the tested compounds at 10 different final concentrations. Each concentration was obtained from serial dilutions in culture medium starting from the stock solution. The control cells were treated with the carrier. The experiments were carried out in triplicate.
(§6) The measurements were performed after 72 hours of treatment using the CellTiter Glo assay (Promega) which makes it possible to measure through bioluminescence (quantification of adenosine triphosphate—ATP) the number of living cells, by using a PolarStar Omega microplate reader (BMG-Labtech).
(§7) The dose-response curves were plotted with the Graph Prism software application and the IC50 values were calculated using the Graph Prism software based on polynomial curves (four or five parameter logistic equations).

[2] = test system: HCT116 (colorectal tumour); assay: Antiproliferative activity (IC50), CellTiter Glo, HCT116; type: cell-based, human; settings: for IC50: Homo sapiens, HCT-116
Description: as §1, §2
(§8) The HCT-116 human colorectal carcinoma, SK-BR3 breast carcinoma, and SK-OV-3 ovarian carcinoma cells were cultured in Gibco McCoy's 5A medium supplemented with 10% foetal calf serum (FCS) and 1% glutamine.
as §4, §5, §6, §7

MCF7 (breast tumour) = assay: Antiproliferative activity (IC50), CellTiter Glo, MCF7; type: cell-based; settings: unconjugated
Description: as §1, §2, §3, §4, §5, §6, §7

NCI-N87 (gastric tumour) = assay: Antiproliferative activity (IC50), CellTiter Glo, NCI-N87; type: cell-based; settings: for IC50: Homo sapiens, NCI-N87
Description: as §1, §2
(§9) The A549 lung carcinoma cells, K562R myeloid leukemia cells, and the NCI-N87 gastric carcinoma cells were cultured in Gibco Roswell Park Memorial Institute (RPMI) 1640 medium supplemented with 10% foetal calf serum (FCS) and 1% glutamine. The Mia-Paca2 carcinoma cells were cultured in Gibco Dulbecco's Modified Eagle Medium (DMEM) supplemented with 10% foetal calf serum (FCS) and 1% glutamine.
as §4, §5, §6, §7

[3] = test system: A549 (non-small cell lung cancer); assay: Antiproliferative activity (IC50), CellTiter Glo, A549; type: cell-based; settings: for IC50: Homo sapiens, A549
Description: as §1, §2, §9, §4, §5, §6, §7

[4] = test system: SKBr3 (breast tumour, Her2 overexpression); assay: Antiproliferative activity (IC50), CellTiter Glo, SKBr3; type: cell-based, human; settings: for IC50: Homo sapiens, SK-BR-3
Description: as §1, §2, §8, §4, §5, §6, §7

[5] = test system: Mia-Paca-2 (pancreatic tumour); assay: Antiproliferative activity (IC50), CellTiter Glo, Mia-Paca-2; type: cell-based; settings: for IC50: Homo sapiens, MIA PaCa-2
Description: as §1, §2, §9, §4, §5, §6, §7

SKOV3 (ovarian tumour) = assay: Antiproliferative activity (IC50), CellTiter Glo, SKOV3; type: cell-based, human; settings: for IC50: Homo sapiens, SK-OV-3
Description: as §1, §2, §8, §4, §5, §6, §7

[6] = test system: K562R (chronic myeloid leukemia); assay: Antiproliferative activity (IC50), CellTiter Glo, K562R; type: cell-based; settings: for IC50: Homo sapiens, K-562R
Description: as §1, §2, §9, §4, §5, §6, §7
The K562R (chronic myeloid leukemia) cells have an MDR profile that allows them to be resistant to several chemotherapeutic compounds including the reference compound MMAE.

MDA-MB-231 cell line = settings: published by Chen et al.; read-out: IC50 over the MDA-MB-231 cell line; cited from earlier work
cell line HCT116 = settings: molecules 4f/4j and 4g/4k of Alami et al. J. Med. Chem. 2019; cited from earlier work
[7] = comparative data 13b / ICQN-1, unit inferred, read-out: HCT116 (antiproliferative activity, Table 3)
[8] = ratio versus MMAE, unconjugated
[9] = ratio versus prior-art payload ICQO-1
[10] = comparative data 13b / ICQN-1, unit inferred, read-out: NCI-N87 (antiproliferative activity, Table 3)
[11] = comparative data 13b / ICQN-1, unit inferred, read-out: A549 (antiproliferative activity, Table 3)
[12] = comparative data 13b / ICQN-1, unit inferred, read-out: SKBr3 (antiproliferative activity, Table 3)
[13] = comparative data 13b / ICQN-1, unit inferred, read-out: Mia-Paca2 (antiproliferative activity, Table 3)
[14] = comparative data 13b / ICQN-1, unit inferred, read-out: SKOV3 (antiproliferative activity, Table 3)
[15] = comparative data 13b / ICQN-1, unit inferred, read-out: K562R (antiproliferative activity, Table 3)
[16] = resistant cancer cells, MDR profile

## CN(c1ccc2c(c1)c1ccccc1n2C)c1cc(C#N)nc2ccccc12 [Ib]
HCT116 cell line
  drop in cytotoxic activity (factor) on replacing Me by CN at position 2 of quinoline: 170

## COc1ccc(N(C)c2cc(C#N)nc3ccccc23)cc1N [ICQN-1, 4-((3-amino-4-methoxyphenyl)(methyl)amino) quinoline-2-carbonitrile]
[1]; Homo sapiens, MDA-MB-231, free, 72 hours of treatment, read-out: MDA-MB231 CI50
  IC50: 0.34 nM
[1]; ratio versus MMAE
  IC50 Ratio ICQN1/MMAE, MDA-MB231: 4
[2]; [7]
  IC50: 0.23 nM
[2]; free, unconjugated, 72 hours of treatment, read-out: HCT116 IC50
  IC50: 0.23 nM
[2]; [8]
  IC50 ratio MMAE/ICQN-1 (fold potency of ICQN-1 over MMAE), HCT116: 7
[2]; ratio versus compound 13b
  Ratio of activity 13b vs ICQN-1, HCT116: ~10
[2]; [9]
  IC50 ratio ICQN-1 vs ICQO-1, HCT-116: 44
MCF7 (breast tumour); Homo sapiens, MCF7, free, 72 hours of treatment, read-out: MCF7 CI50
  IC50: 0.17 nM
MCF7 (breast tumour); ratio versus MMAE
  IC50 Ratio ICQN1/MMAE, MCF7: 3
NCI-N87 (gastric tumour); [10]
  IC50: 0.3 nM
NCI-N87 (gastric tumour); free, unconjugated, 72 hours of treatment, read-out: NIC-N87 IC50
  IC50: 0.3 nM
NCI-N87 (gastric tumour); nM given only in VB118 cells, read-out: NCI-N87 (antiproliferative activity, Table 6)
  IC50: 0.3 nM
NCI-N87 (gastric tumour); [8]
  IC50 Ratio ICQN1/MMAE, NCI-N87: 22
NCI-N87 (gastric tumour); ratio versus compound 13b
  Ratio of activity 13b vs ICQN-1, NCI-N87: 15
[3]; [11]
  IC50: 0.72 nM
[3]; free, unconjugated, 72 hours of treatment, read-out: A549 IC50
  IC50: 0.72 nM
[3]; [8]
  Potency ratio of ICQN-1 vs MMAE (MMAE IC50 / ICQN-1 IC50), A549: 6
[3]; ratio versus compound 13b
  Ratio of activity 13b vs ICQN-1, A549: 1
[4]; [12]
  IC50: 0.36 nM
[4]; free, unconjugated, 72 hours of treatment, read-out: SKBr3 IC50
  IC50: 0.36 nM
[4]; nM given only in VB118 cells, read-out: SKBR3 (antiproliferative activity, Table 6)
  IC50: 0.36 nM
[4]; ratio versus compound 13b
  Ratio of activity 13b vs ICQN-1, SKBr3: 6
[5]; [13]
  IC50: 0.49 nM
[5]; free, unconjugated, 72 hours of treatment, read-out: Mia-Paca-2 IC50
  IC50: 0.49 nM
[5]; nM given only in VB118 cells, read-out: Mia-Paca-2 (antiproliferative activity, Table 6)
  IC50: 0.49 nM
[5]; [8]
  IC50 Ratio ICQN1/MMAE, Mia-Paca-2: 6
[5]; ratio versus compound 13b
  Ratio of activity 13b vs ICQN-1, Mia-Paca2: 2
SKOV3 (ovarian tumour); [14]
  IC50: 0.44 nM
SKOV3 (ovarian tumour); free, unconjugated, 72 hours of treatment, read-out: SKOV3 IC50
  IC50: 0.44 nM
SKOV3 (ovarian tumour); nM given only in VB118 cells, read-out: SKOV-3 (antiproliferative activity, Table 6)
  IC50: 0.44 nM
SKOV3 (ovarian tumour); ratio versus compound 13b
  Ratio of activity 13b vs ICQN-1, SKOV3: 3
SKOV3 (ovarian tumour); [9]
  IC50 ratio ICQN-1 vs ICQO-1, SKOV-3: 3
[6]; [15]
  IC50: 0.47 nM
[6]; free, unconjugated, 72 hours of treatment, read-out: K562R IC50
  IC50: 0.47 nM
[6]; nM given only in VB118 cells, read-out: K562R (antiproliferative activity, Table 6)
  IC50: 0.47 nM
[6]; resistant cancer cells, MDR profile, read-out: K562R (PgP+) IC50
  IC50: 0.47 nM
[6]; ratio versus compound 13b
  Ratio of activity 13b vs ICQN-1, K562R: 8
[6]; [16]
  Ratio vs ICQO-1, K562R (PgP+): 4.2
  Ratio vs MMAE, K562R (PgP+): 74

## COc1ccc(N(C)c2cc(C)nc3ccccc23)cc1N [Compound 13b, reference compound]
[2]; [7]
  IC50: 2.15 nM
NCI-N87 (gastric tumour); [10]
  IC50: 4.36 nM
[3]; [11]
  IC50: 0.68 nM
[4]; [12]
  IC50: 2.17 nM
[5]; [13]
  IC50: 0.92 nM
MDA-MB-231 cell line
  IC50: 3.2 nM
SKOV3 (ovarian tumour); [14]
  IC50: 1.28 nM
[6]; [15]
  IC50: 3.59 nM

## C=C(c1ccc2c(c1)c1ccccc1n2C)c1cc(C#N)nc2ccccc12
Cell line HCT116
  IC50: 12 nM
